{"source": "patent US12440454B2", "about": "“Pharmaceutical compositions containing hemp extract for administration to felines and related methods” (Portland Technology Holdings LLC, priority 2022, dated 2025)", "key": {"[1]": {"experiment": "24 hour pharmacokinetic analysis of serum cannabinoids after oral CBD/CBDA rich hemp paste", "details": "for detectability in serum of cats at any time point: 24 hour PK; for Css Ave (calculated predicted 5 half-life mean serum concentration): predicted steady state from one compartment model", "text": "(§1) Eight cats from a contract research laboratory (Summit Ridge Farms, Gibson, PA) were utilized for this experiment. 4 spayed female cats and 4 neutered male cats were used. […] The cat population ranged from 4.1 kg to 5.4 kg (mean weight 4.7 kg). An initial dosage of 1 g of paste was fed to each cat at zero hours. Additionally, and after the initial 24-hour pharmacokinetic assessment, treatment with 1 g of paste resumed on the next day for 6 days, twice daily at 7 am and 4 pm each day. […] Cats were fed their normal daily meal approximately 1 hour after oral paste consumption. The base of the paste was a proprietary mix of soy oil, dextrose, dried chicken liver, silica, inulin, polysorbate 60, potassium sorbate, sorbic acid, saccharin, mixed tocopherols, methylparaben, propylparaben in descending order of volume with 15% cannabinoid rich hemp oil emulsified with the product. Prior to enrollment all cats involved in the study were deemed healthy and normal based on physical examination, complete blood count and serum chemistry assessment. During the 1-week trial examination of all cats were assessed at the 1 and 4 hour time point after morning dosing. The assessment included examination for physical abnormalities and examination for adverse events including diarrhea, vomiting, lethargy, somnolence, ataxia, or abnormal behavior within the colony during treatment. Regarding the 24 hour pharmacokinetic study, two milliliters of blood was drawn via jugular venipuncture for all 8 cats prior to the initial dose and then again at 0.5, 1, 2, 4, 8 and 24 hours for a 7 point pharmacokinetic analysis. Complete blood counts, serum chemistry and serum cannabinoid concentrations were performed before the initial treatment and at the end of day 7 treatment, 6 hours after the morning treatment. Complete blood count data included white blood cells (WBC), hematocrit, hemoglobin, red blood cells (RBC), neutrophils, lymphocytes, platelets, monocytes, eosinophils, basophils). Serum biochemistry analyses included sodium, potassium, chloride, magnesium, calcium, phosphorus, albumin, total protein, globulin, urea nitrogen, creatinine, alkaline phosphatase (ALP), alanine aminotransferase (ALT), aspartate amino transferase (AST), cholesterol, total bilirubin, glucose and gamma glutamyl transferase (GGT) with a focus of this report being renal and hepatic parameters. All blood parameters measured were performed at the Cornell University Diagnostic Laboratory.\n(§2) Analysis was performed using an exploratory (fit-for-purpose) method for fast measurement of thirteen cannabinoids and their metabolites at the Toxicology Research Laboratory, University of Illinois at Chicago.\nCat serum (40 μL) was mixed with 20 μL of internal standards [100 ng/mL of CBD-d3, THC-d3, THCA-d3, 7-COOH-CBD-d3, 7-OH-CBD-d5, 11-OH-THC-d3, COOH-THC-d9, and COOH-THC-Glu-d3 in water:methanol (50:50)] in a 96 well plate. Proteins were precipitated and compounds were extracted by adding 100 μL of ice-cold acetonitrile to the samples, then vortexing for 1-2 minutes and centrifuging at 4,000 rpm for 10 minutes at 4° C. Supernatants (70 μL) were mixed with 70 μL of water in a different 96 well plate, and centrifuged again. […] The column was equilibrated with mobile phase A (0.1% formic acid in water) and mobile phase B (acetonitrile) at 50% B. The compounds were eluted by a linear gradient from 50% B to […] over 6 minutes, and then held at 95% B for 1 minute. Subsequently, the column was re-equilibrated at initial composition for 1 minute at a flow rate of 0.3 mL/min. The autosampler and column temperature were set a 4 and 30° C., respectively. The compounds were detected in electrospray ionization positive and/or negative mode."}, "[2]": {"experiment": "Serum cannabinoid concentrations after one week of twice daily dosing (day 7, 6 hours post morning dose) compared with predicted steady state", "details": "Student T-test", "text": "as §1, §2\nCat serum (40 μL) was mixed with 20 μL of internal standards [100 ng/mL of CBD-d3, THC-d3, THCA-d3, 7-COOH-CBD-d3, 7-OH-CBD-d5, 11-OH-THC-d3, COOH-THC-d9, and COOH-THC-Glu-d3 in water:methanol (50:50)] in a 96 well plate. Proteins were precipitated and compounds were extracted by adding 100 μL of ice-cold acetonitrile to the samples, then vortexing for 1-2 minutes and centrifuging at 4,000 rpm for 10 minutes at 4° C. Supernatants (70 μL) were mixed with 70 μL of water in a different 96 well plate, and centrifuged again. […] The compounds were detected in electrospray ionization positive and/or negative mode."}, "[3]": {"details": "both, cat, in vivo, po, 1 g of paste"}, "[4]": {"details": "both, in vivo, po, 1 g of paste"}, "[5]": {"details": "cats, single oral 1 g paste, serum, 0-24 h, mean ± SD"}, "[6]": {"details": "cats, single oral 1 g paste, serum, mean ± SD"}}, "data": [{"molecule": "C=C(C)[C@@H]1CCC(C(=O)O)=C[C@H]1c1c(O)cc(CCCCC)cc1O", "note": "[7-COOH-CBD, 7-COOH cannabidiol]", "values": [{"measurement": "detectability in serum of cats at any time point", "setting": "[1]; cats, serum", "result": "found in all cats"}]}, {"molecule": "C=C(C)[C@@H]1CCC(CO)=C[C@H]1c1c(O)cc(CCCCC)cc1O", "note": "[7-OH-CBD, 7-OH-cannabidiol]", "values": [{"measurement": "detectability in serum of cats at any time point", "setting": "[1]; cats, serum", "result": "either below the detectable limit for the analyte or less than half of the population showed any appreciable concentration"}, {"measurement": "cats showing no detectable concentrations of this metabolite", "setting": "[1]; of the 8 cats, serum", "result": 5}]}, {"molecule": "CCCCCc1cc(O)c2c(c1)OC(C)(C)[C@@H]1CCC(CO)=C[C@@H]21", "note": "[11-OH-THC, 11-OH-tetrahydrocannabinol]", "values": [{"measurement": "detectability in serum of cats at any time point", "setting": "[1]; cats, serum", "result": "either below the detectable limit for the analyte or less than half of the population showed any appreciable concentration"}]}, {"molecule": "CCCCCc1cc(O)c2c(c1)OC(C)(CCC=C(C)C)C=C2", "note": "(centres unmarked) [CBC, cannabichromene]", "values": [{"measurement": "detectability in serum of cats at any time point", "setting": "[1]; cats, serum", "result": "either below the detectable limit for the analyte or less than half of the population showed any appreciable concentration"}]}, {"molecule": "C=C(C)[C@@H]1CCC(C)=C[C@H]1c1c(O)cc(CCCCC)cc1O", "note": "[CBD, cannabidiol, reference compound]", "values": [{"measurement": "Cmax", "setting": "[1]; [3]", "result": 282, "unit": "ng/mL"}, {"measurement": "AUC(0-t)", "setting": "[1]; [4]", "result": "908 ± 528", "unit": "ng·h/mL"}, {"measurement": "Tmax", "setting": "[1]; [4]", "result": 2, "unit": "h"}, {"measurement": "half-life", "setting": "[1]; [4]", "result": "2.1 ± 1.1", "unit": "h"}, {"measurement": "Css Ave (calculated predicted 5 half-life mean serum concentration)", "setting": "[1]; cats, mean ± SD", "result": "102.1 ± 46.3", "unit": "ng/mL"}, {"measurement": "predicted steady state (Css Ave) versus actual serum concentration", "setting": "[2]", "result": "predicted concentration was higher than the actual concentration"}]}, {"molecule": "C=C(C)[C@@H]1CCC(C)=C[C@H]1c1c(O)cc(CCCCC)c(C(=O)O)c1O", "note": "[CBDA, cannabidiolic acid]", "values": [{"measurement": "Cmax", "setting": "[1]; [3]", "result": 1010, "unit": "ng/mL"}, {"measurement": "AUC(0-t)", "setting": "[1]; [4]", "result": "2640 ± 1280", "unit": "ng·h/mL"}, {"measurement": "Cmax", "setting": "[1]; [4]", "result": "1010 ± 495", "unit": "ng/mL"}, {"measurement": "Tmax", "setting": "[1]; [4]", "result": "1.6 ± 1.1", "unit": "h"}, {"measurement": "Css Ave (calculated predicted 5 half-life mean serum concentration)", "setting": "[1]; cats, mean ± SD", "result": "204.5 ± 87.8", "unit": "ng/mL"}, {"measurement": "predicted steady state (Css Ave) versus actual serum concentration", "setting": "[2]", "result": "predicted concentration was higher than the actual concentration"}]}, {"molecule": "CCCCCc1cc(O)c(C/C=C(\\C)CCC=C(C)C)c(O)c1", "note": "[CBG, cannabigerol]", "values": [{"measurement": "AUC(0-t)", "setting": "[1]; both, in vivo, po", "result": "11.4 ± 2.8", "unit": "ng·h/mL"}, {"measurement": "Cmax", "setting": "[1]; both, in vivo, po", "result": "4.35 ± 1", "unit": "ng/mL"}, {"measurement": "MRT", "setting": "[1]; both, in vivo, po", "result": "2.3 ± 0.1", "unit": "h"}, {"measurement": "Tmax", "setting": "[1]; both, in vivo, po", "result": 2, "unit": "h"}, {"measurement": "half-life", "setting": "[1]; both, in vivo, po", "result": "0.9 ± 0.1", "unit": "h"}]}, {"molecule": "CCCCCc1cc(O)c(C/C=C(\\C)CCC=C(C)C)c(O)c1C(=O)O", "note": "[CBGA, cannabigerolic acid]", "values": [{"measurement": "AUC(0-t)", "setting": "[1]; [4]", "result": "34.1 ± 9.5", "unit": "ng·h/mL"}, {"measurement": "Cmax", "setting": "[1]; [4]", "result": "19.7 ± 5.5", "unit": "ng/mL"}, {"measurement": "MRT", "setting": "[1]; [4]", "result": "1.5 ± 0.2", "unit": "h"}, {"measurement": "Tmax", "setting": "[1]; [4]", "result": "1 ± 0.2", "unit": "h"}, {"measurement": "half-life", "setting": "[1]; [4]", "result": "0.7 ± 0.1", "unit": "h"}, {"measurement": "Css Ave (calculated predicted 5 half-life mean serum concentration)", "setting": "[1]; cats, mean ± SD", "result": "4.8 ± 1.3", "unit": "ng/mL"}, {"measurement": "predicted steady state (Css Ave) versus actual serum concentration", "setting": "[2]", "result": "predicted concentration was higher than the actual concentration"}]}, {"molecule": "CCCCCc1cc(O)c2c(c1)OC(C)(C)c1ccc(C)cc1-2", "note": "[CBN, cannabinol]", "values": [{"measurement": "detectability in serum of cats at any time point", "setting": "[1]; cats, serum", "result": "either below the detectable limit for the analyte or less than half of the population showed any appreciable concentration"}]}, {"molecule": "CCCCCc1cc(O)c2c(c1)OC(C)(C)[C@@H]1CCC(C(=O)O)=C[C@@H]21", "note": "[COOH-THC, COOH-tetrahydrocannabinol]", "values": [{"measurement": "detectability in serum of cats at any time point", "setting": "[1]; cats, serum", "result": "either below the detectable limit for the analyte or less than half of the population showed any appreciable concentration"}]}, {"molecule": "CCCCCc1cc(O)c2c(c1)OC(C)(C)[C@H]1CCC(C(=O)O[C@@H]3O[C@H](C(=O)O)[C@@H](O)[C@H](O)[C@H]3O)=C[C@H]21", "note": "[COOH-THC-glu, COOH-glucuroniated tetrahydrocannabinol]", "values": [{"measurement": "detectability in serum of cats at any time point", "setting": "[1]; cats, serum", "result": "either below the detectable limit for the analyte or less than half of the population showed any appreciable concentration"}]}, {"molecule": "CCCCCc1cc(O)c2c(c1)OC(C)(C)[C@@H]1CCC(C)=C[C@@H]21", "note": "[THC, Δ9-tetrahydrocannabinol, reference compound]", "values": [{"measurement": "Css Ave (calculated predicted 5 half-life mean serum concentration)", "setting": "[1]; cats, mean ± SD", "result": "11.9 ± 5.2", "unit": "ng/mL"}, {"measurement": "detectability in serum of cats at any time point", "setting": "[1]; cats, serum", "result": "either below the detectable limit for the analyte or less than half of the population showed any appreciable concentration"}, {"measurement": "AUC(0-t)", "setting": "[1]; [5]", "result": "156.5 ± 65.8", "unit": "ng·h/mL"}, {"measurement": "Cmax", "setting": "[1]; [6]", "result": "40.9 ± 12.9", "unit": "ng/mL"}, {"measurement": "MRT", "setting": "[1]; [6]", "result": "3.7 ± 0.4", "unit": "h"}, {"measurement": "T1/2 el", "setting": "[1]; [6]", "result": "1.6 ± 0.4", "unit": "h"}, {"measurement": "Tmax", "setting": "[1]; [6]", "result": "2 ± 0", "unit": "h"}, {"measurement": "predicted steady state (Css Ave) versus actual serum concentration", "setting": "[2]", "result": "predicted concentration was higher than the actual concentration"}]}, {"molecule": "CCCCCc1cc2c(c(O)c1C(=O)O)C1C=C(C)CCC1C(C)(C)O2", "note": "(centres unmarked) [THCA, Δ9-tetrahydrocannabinolic acid]", "values": [{"measurement": "Css Ave (calculated predicted 5 half-life mean serum concentration)", "setting": "[1]; cats, mean ± SD", "result": "43.3 ± 13.9", "unit": "ng/mL"}, {"measurement": "AUC(0-t)", "setting": "[1]; [5]", "result": "434.0 ± 229.1", "unit": "ng·h/mL"}, {"measurement": "Cmax", "setting": "[1]; [6]", "result": "87.9 ± 34.0", "unit": "ng/mL"}, {"measurement": "MRT", "setting": "[1]; [6]", "result": "5.5 ± 2.1", "unit": "h"}, {"measurement": "T1/2 el", "setting": "[1]; [6]", "result": "3.8 ± 1.3", "unit": "h"}, {"measurement": "Tmax", "setting": "[1]; [6]", "result": "2 ± 0.9", "unit": "h"}, {"measurement": "predicted steady state (Css Ave) versus actual serum concentration", "setting": "[2]", "result": "no different"}]}]}
